Patent publication US9816994B2, “Method for treating a blood component containing sample” (ARKRAY, Inc., priority 2012, dated 2017)

Tests used:
[1] = system: MCF-7 breast cancer cells; experiment: Assessment of damage to cancer cells (trypan blue survival rate), MCF-7; type: cell-based, human; conditions: 10 minutes after a contact with surfactant, 2.5 w/v %
Method: (§1) Cells of SNU-1, MCF-7, SW620, PC3, and NCI-358 derived from gastric cancer, breast cancer, large intestinal cancer, prostate cancer, and lung cancer were prepared to be 2×10^6 Cells/ml and used. The cancer cells were prepared in the following manner. 50 μL of a cancer cell suspension in the serum-including medium and 50 μL of the aqueous solution of the surfactant were added into the 1.5 ml microcentrifuge tube, stirred with pipetting so as to make the solution homogeneous. Later, the solution was allowed to stand at an ambient temperature of 23° C. for about 10 minutes so as to proceed the reaction. Then, the reaction liquid in the microcentrifuge tube was stirred with pipetting so as to disperse the cells, and subsequently, 50 μL of the liquid was dispensed into another microcentrifuge tube and 50 μL of 0.4% trypan blue stain solution (Invitrogen) was mixed therein. This was injected into a counting chamber so as to count living cells that had not been stained with the trypan blue. Provided that the number of cells in a reaction liquid to which distilled water had been added in place of the reagent being 100%, the survival rate was calculated from the number of cells survived 10 minutes after (Example 1) and 30 minutes after (Example 2) from the reaction with the aqueous solution of the surfactant. […]

[2] = system: NCI-H358 lung cancer cells; experiment: Assessment of damage to cancer cells (trypan blue survival rate), NCI-H358; type: cell-based, human; conditions: 10 minutes after a contact with surfactant, 2.5 w/v %
Method: as §1

erythrocytes = experiment: Measurement of lysis time of erythrocytes (absorbance at 650 nm, micro-plate reader); type: cell-based, human
Method: As a sample containing erythrocytes, blood that had been collected from a vein of a healthy person by use of a vacuum blood-collecting vessel (EDTA including 2K) was used. 30 μL of the sample containing the blood was dispensed onto a 96-well microplate, in which 30 μL of the aqueous solution of surfactant was mixed and stirred five times with pipetting, thereby allowing the reaction solution to react homogeneously. The absorbance was measured every one minute with a micro-plate reader. The moment at which the absorbance became 0.5 or lower at a wavelength of 650 nm was determined as the lysis of the blood cells. The results are shown in Table 3 below (Examples 1 and 2). In Examples 1 and 2, the absorbance reached 0.5 within the time period from 30 minutes to 60 minutes after starting the measurement. On the other hand, in Comparative Example 9 where the aqueous solution of the surfactant was replaced by distilled water, the absorbance did never reach 0.5 even 60 minutes after from the start of the measurement. The micro-plate reader used herein was Thermo Labsystems Multiskan Ascent 35 manufactured by Thermo Labsystems.

[3] = system: SW620 large intestinal cancer cells; experiment: Assessment of damage to cancer cells (trypan blue survival rate), SW620; type: cell-based, human; conditions: 10 minutes after a contact with surfactant, 2.5 w/v %
Method: as §1

[4] = system: SNU-1 gastric cancer cells; experiment: Assessment of damage to cancer cells (trypan blue survival rate), SNU-1; type: cell-based, human; conditions: 10 minutes after a contact with surfactant, 2.5 w/v %
Method: as §1, with “Then, the reaction liquid in the microcentrifuge tube was stirred with pipetting so as to disperse the cells, and subsequently, 50 μL of the liquid was dispensed into another microcentrifuge tube and 50 μL of 0.4% trypan blue stain solution (Invitrogen) was mixed therein. This was injected into a counting chamber so as to count living cells that had not been stained with the trypan blue.” left out
A mixture of the surfactant No. 1 and either the surfactant No. 2 or No. 3 was prepared at a mixing ratio of 10:0 to 0:10 (weight ratio: the total concentration of the surfactants was 2.5 w/v %). […] The survival rate was calculated from the number of cells survived after the reaction with the mixture of surfactants, provided that the number of cells in a reaction liquid to which distilled water had been added in place of the reagent being 100%. […]

[5] = system: PC3 prostate cancer cells; experiment: Assessment of damage to cancer cells (trypan blue survival rate), PC3; type: cell-based, human; conditions: 10 minutes after a contact with surfactant, 2.5 w/v %
Method: as §1

leukocytes = experiment: Assessment of damage to leukocytes (trypan blue survival rate); type: cell-based
Method: Leukocytes were separated from 10 ml of fresh blood in accordance with HetaSep protocol (manufactured by STEMCELL (trade name) Technologies), which was suspended in 1 ml of PBS(−) and collected in a 1.5 ml disposable microtube (a microcentrifuge tube with trade name of DSP-MC-15A manufactured by Nichiryo Co., Ltd.). Since a small amount of erythrocytes were still included in the separated leukocytes, the erythrocytes were eliminated by using ammonium chloride (supplied by STEMCELL (trade name) Technologies) in accordance with the attached document, and the leukocytes were collected through centrifugation, washed in PBS(−), and then suspended in 1 ml of a serum-including medium. 50 μL of leukocyte suspension in the serum-including medium and 50 μL of the aqueous solution of the surfactant were mixed in the 1.5 ml microcentrifuge tube, and the mixed solution was stirred with pipetting about five times so that the solution would be homogeneous. […] Provided that the number of cells in a reaction liquid to which distilled water had been added in place of the reagent being 100%, the survival rate was calculated from the number of cells survived 10 minutes after (Example 1) and 30 minutes after (Example 2) from the reaction with the aqueous solution of surfactant.

Substance: polyoxyethylene octyl dodecylether (EO=25) [Surfactant No. 1]
- Cancer cell survival rate (%) MCF-7 Breast cancer [1]: 112.3%
- Cancer cell survival rate (%) MCI-358 Lung cancer [2]: 89.9%
- Lysis time to reach absorbance of 0.5 (erythrocytes; surfactant (2.5 w/v %), mixing ratio 2:8 (No. 1 is 80%)): 30 to 60 min
- Lysis time to reach absorbance of 0.5 (erythrocytes; surfactant used alone, preparation concentration 2.5 w/v %): 30 to 60 min
- Cancer cell survival rate (%) SW620 Large intestinal cancer [3]: 81%
- Cancer cell survival rate (%) SNU-1 Gastric cancer [4]: 86.1%
- Cancer cell survival rate (%) PC3-9 Prostate cancer [5]: 101.8%
- selectivity of lowering survival rate, leukocytes against cancer cells (leukocytes; 2.5 w/v % aqueous solution, 10 and 30 minutes): lower selectively the survival rate of the leukocytes rather than cancer cells
- Leukocyte survival rate (%) (leukocytes; 10 minutes after contact, 2.5 w/v %, 23° C., distilled water = 100%): 71.8%
